Measured values: US5470833A, “Endothelin antagonistic peptide derivatives” (Banyu Pharmaceutical Co., Ltd., priority 1990, dated 1995)
Like-named read-outs stand apart in the source and are kept apart here. Numbered stars: 1 amine (or outer) side, 2 acyl side, 3 side chain; on linkers, the order of the positions; unused ones are H or OH. Square brackets hold non-standard residues; d marks the D form. Peptide text beside a SMILES is read from it. * marks the point of attachment. d(β3hW) = N[C@@H](CC(=O)O)Cc1c[nH]c2ccccc12; dNMeW = CN[C@H](Cc1c[nH]c2ccccc12)C(=O)O; β3hF = N[C@H](CC(=O)O)Cc1ccccc1; NMeL = CN[C@@H](CC(C)C)C(=O)O; d(β3hA) = C[C@@H](N)CC(=O)O; Boc = CC(C)(C)OC(=O)*; CO = O=C([*:1])[*:2]; NHBn = c1ccc(CN*)cc1; NHPh = c1ccc(N*)cc1; Dha = C=C(N)C(=O)O; NHtBu = CC(C)(C)N*; Bn = c1ccc(C*)cc1; GABA = NCCCC(=O)O; βAla = NCCC(=O)O; NEt2 = CCN(CC)*

Biological target: T1, endothelin receptor (membrane of smooth muscle tissue of porcine aorta) (Sus scrofa, UniProt Q29010)
T1 construct: from tissue; host or cells: porcine aorta smooth muscle, membrane fraction
T1 sequence (Q29010 21-427): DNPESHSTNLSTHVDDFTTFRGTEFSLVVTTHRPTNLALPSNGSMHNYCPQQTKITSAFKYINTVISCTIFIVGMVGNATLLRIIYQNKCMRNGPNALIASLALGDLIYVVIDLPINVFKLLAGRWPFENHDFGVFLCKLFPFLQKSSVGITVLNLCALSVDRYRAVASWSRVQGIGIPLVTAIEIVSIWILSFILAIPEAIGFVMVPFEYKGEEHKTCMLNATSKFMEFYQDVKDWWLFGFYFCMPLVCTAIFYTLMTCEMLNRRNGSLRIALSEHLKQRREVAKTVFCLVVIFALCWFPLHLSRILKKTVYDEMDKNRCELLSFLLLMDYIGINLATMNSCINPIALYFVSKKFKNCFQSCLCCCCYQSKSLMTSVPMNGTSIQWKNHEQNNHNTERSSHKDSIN
Experiment: Endothelin binding inhibition test (125I-endothelin-1, porcine aorta smooth muscle membrane)
Conditions: read-out: 125I-endothelin-1 binding inhibition; for inhibition at 1.1 µM: 1.1 μM test compound (no mark)
Protocol: The smooth muscle tissue of porcine aorta was homogenized in a buffer solution of 10 mM MOPS, pH 7.4, at 4° C. by a polytron. To the homogenate, sucrose was added to a concentration of 20%, and the mixture was centrifuged at 1,000×g for 15 minutes, and the supernatant was further centrifuged at 10,000×g for 15 minutes. The supernatant thereof was further centrifuged at 90,000×g for 40 minutes. The membrane precipitate thereby obtained was suspended in a buffer solution of 5 mM HEPES/Tris, pH 7.4, at a concentration of 25 mg/ml.
Then, 16 μl of this membrane suspension was added to 340 μl of 50 mM Tris/HCl buffer, pH 7.4, containing 10 μM calcium chloride, 10 μM magnesium chloride, 0.1 mM PMSF, 1 μM pepstatin A, 2 μM leupeptin, 1 mM 1,10-phenanthroline and 0.1% bovine serum albumin. To this suspension, 4 μl of (A) endothelin-1 (for nonspecific binding; 0.2 μM as the final concentration), (B) buffer solution A (for total control binding), or (C) a test compound (1.1 μM or 10 μM as the final concentration),was added. Further, to each suspension, 40 μl of ^125 I-endothelin-1 (12000-18000 cpm) was added. These mixtures were incubated at 25° C. for 4 hours, then subjected to filtration on a glass filter GF/C and then washed with 5 mM HEPES/Tris, pH 7.4, containing 0.3% bovine serum albumin. Then, the radioactivity trapped by the glass filter was measured, and the ^125 I-endothelin-1 binding inhibition D (%) at 1.1 μM or 10 μM of the test compound was determined by the following equation. [formula] Each test was performed in triplicate.
The test compounds are indicated by Compound Nos.

inhibition at 1.1 µM [%] | SMILES | also measured
71 | CC(C)C[C@H](NC(=O)N1CCCCCC1)C(=O)N[C@H](Cc1c[nH]c2ccccc12)C(=O)NN1CCC[C@H]1C(=O)O [Compound 164] | –
81 | CC(C)C[C@H](NC(=O)N(C)C(C)(C)C)C(=O)N[C@H](Cc1cn(C=O)c2ccccc12)C(=O)N[C@H](Cc1c[nH]c2ccccc12)C(=O)O [Compound 174] | –
69 | CC(C)C[C@H](NC(=O)NC12CC3CC(CC(C3)C1)C2)C(=O)N[C@H](Cc1c[nH]c2ccccc12)C(=O)NCCC(=O)O [Compound 113] | –
33 | CC(C)C[C@H](NC(=O)NCc1ccccc1)C(=O)N[C@H](Cc1c[nH]c2ccccc12)C(=O)NCCC(=O)O [Compound 115] ({NHBn-CO}-Leu-[dW]-[βAla]-OH) | –
39 | CC(C)C[C@H](NC(=O)N1CCCCCC1)C(=O)N[C@H](Cc1c[nH]c2ccccc12)C(=O)NCCC(N)=O [Compound 135] | –
87 | CC(C)C[C@H](NC(=O)C1CCCCCC1)C(=O)N[C@H](Cc1c[nH]c2ccccc12)C(=O)N[C@H](Cc1c[nH]c2ccccc12)C(=O)O [Compound 200] | –
86 | CC(C)C[C@H](NC(=O)N1CCCCCC1)C(=O)N[C@H](Cc1cn(C=O)c2ccccc12)C(=O)N[C@H](Cc1c[nH]cn1)C(=O)O [Compound 156] | –
46 | CC(C)C[C@H](NC(=O)OC(C)(C)C)C(=O)N[C@H](Cc1c[nH]c2ccccc12)C(=O)N[C@H](Cc1ccc(OCc2ccccc2)cc1)C(=O)O [Compound 137] (Boc-Leu-[dW]-[dY](Bn)-OH) | –
41 | C=C(NC(=O)[C@@H](Cc1c[nH]c2ccccc12)NC(=O)[C@H](CC(C)C)NC(=O)OC(C)(C)C)C(=O)O [Compound 133] (Boc-Leu-[dW]-[Dha]-OH) | –

The remaining lines, values behind:

SMILES | inhibition at 1.1 µM [%] | also measured
CC(C)C[C@H](NC(=S)Nc1ccccc1)C(=O)N[C@H](Cc1c[nH]c2ccccc12)C(=O)NCC(=O)O [Compound 91] | – | inhibition at 10 µM (10 μM test compound (marked *)): 51%
CC(C)C[C@H](NC(=O)OC(C)(C)C)C(=O)N[C@H](Cc1c[nH]c2ccccc12)C(=O)N[C@H](CC(=O)O)Cc1ccccc1 [Compound 21] (Boc-Leu-[dW]-[β3hF]-OH) | 39 | –
CC(C)C[C@H](NC(=O)OC(C)C)C(=O)N[C@H](Cc1c[nH]c2ccccc12)C(=O)NCCC(=O)O [Compound 71] | 29 | –
CC(C)C[C@H](NC(=O)OC(C)(C)C)C(=O)N[C@H](Cc1c[nH]c2ccccc12)C(=O)N[C@@H](CC(=O)O)Cc1c[nH]c2ccccc12 [Compound 19] (Boc-Leu-[dW]-[d(β3hW)]-OH) | – | inhibition at 10 µM: 53%
COC(CNC(=O)[C@@H](Cc1c[nH]c2ccccc12)NC(=O)[C@H](CC(C)C)NC(=O)OC(C)(C)C)C(=O)O (some centres unmarked) [Compound 146] | – | inhibition at 10 µM (10 μM test compound (marked *)): 70%
CC(C)C[C@H](NC(=O)OC(C)(C)C)C(=O)N[C@H](Cc1c[nH]c2ccccc12)C(=O)N[C@H](CC(N)=O)C(=O)O [Compound 9] (Boc-Leu-[dW]-[dN]-OH) | – | inhibition at 10 µM (10 μM test compound (marked *)): 55%
CC(C)C[C@H](NC(=O)c1cccs1)C(=O)N[C@H](Cc1c[nH]c2ccccc12)C(=O)NCCC(=O)O [Compound 55] | 54 | –
CC(C)C[C@H](NC(=O)OC(C)(C)C)C(=O)N[C@H](Cc1c[nH]c2ccccc12)C(=O)N[C@H](CC(C)C)C(=O)O [Compound 3] (Boc-Leu-[dW]-[dL]-OH) | 31 | –
COC(=O)[C@@H](Cc1c[nH]cn1)NC(=O)[C@@H](Cc1c[nH]c2ccccc12)NC(=O)[C@H](CC(C)C)NC(=O)N1CCCCCC1 [Compound 47] | 75 | –
CCN(CC)C(=O)N[C@@H](CC(C)C)C(=O)N[C@H](Cc1c[nH]c2ccccc12)C(=O)NCCC(=O)O [Compound 77] ({NEt2-CO}-Leu-[dW]-[βAla]-OH) | 47 | –
CC(C)C[C@H](NC(=O)N1C(C)(C)CCCC1(C)C)C(=O)N[C@H](Cc1c[nH]c2ccccc12)C(=O)NCCC(=O)O [Compound 74] | 70 | –
CC(C)C[C@H](NC(=O)Nc1ccccc1)C(=O)N[C@H](Cc1c[nH]c2ccccc12)C(=O)NCC(=O)O [Compound 90] ({NHPh-CO}-Leu-[dW]-Gly-OH) | 46 | –
CC(C)C[C@H](NC(=O)OC(C)(C)C)C(=O)N[C@H](Cc1c[nH]c2ccccc12)C(=O)NN(CC(=O)O)Cc1ccccc1 [Compound 149] | – | inhibition at 10 µM (10 μM test compound (marked *)): 58%
CC(C)C[C@H](NC(=O)OC(C)(C)C)C(=O)N(C)[C@H](Cc1c[nH]c2ccccc12)C(=O)NCCC(=O)O [Compound 32] (Boc-Leu-[dNMeW]-[βAla]-OH) | – | inhibition at 10 µM (10 μM test compound (marked *)): 32%
CC(C)C[C@H](NC(=O)OC(C)(C)C)C(=O)N[C@H](Cc1c[nH]c2ccccc12)C(=O)NC(Cc1nccs1)C(=O)O (some centres unmarked) [Compound 16] | 74 | –
CC[C@H](C)[C@H](NC(=O)OC(C)(C)C)C(=O)N[C@H](Cc1c[nH]c2ccccc12)C(=O)NCCC(=O)O [Compound 54] (Boc-Ile-[dW]-[βAla]-OH) | 39 | –
CC(C)C[C@H](NC(=O)NC(C)(C)C)C(=O)N[C@H](Cc1c[nH]c2ccccc12)C(=O)N[C@H](Cc1c[nH]c2ccccc12)C(=O)O [Compound 81] ({NHtBu-CO}-Leu-[dW]-[dW]-OH) | 84 | –
CC(C)C[C@H](NC(=O)N1CCCCCC1)C(=O)N[C@H](Cc1c[nH]c2ccccc12)C(=O)N[C@H](C)CC(=O)O [Compound 52] | 84 | –
COC(=O)C[C@@H](C)NC(=O)[C@@H](Cc1c[nH]c2ccccc12)NC(=O)[C@H](CC(C)C)NC(=O)N1CCCCCC1 [Compound 51] | 68 | –
CC(C)C[C@H](NC(=O)OC(C)(C)C)C(=O)N[C@H](Cc1c[nH]c2ccccc12)C(=O)N[C@H](Cc1c[nH]cn1)C(=O)O [Compound 4] (Boc-Leu-[dW]-[dH]-OH) | 80 | –
CC(C)C[C@H](NC(=O)OC(C)(C)C)C(=O)N[C@H](Cc1c[nH]c2ccccc12)C(=O)N[C@@H](C(=O)O)c1cccs1 [Compound 42] | 56 | –
CC(C)C[C@@H](C(=O)N[C@H](Cc1c[nH]c2ccccc12)C(=O)NCCC(=O)O)N(C)C(=O)OC(C)(C)C [Compound 30] (Boc-[NMeL]-[dW]-[βAla]-OH) | 44 | –
CC(C)C[C@H](NC(=O)OC(C)(C)C)C(=O)N[C@H](Cc1c[nH]c2ccccc12)C(=O)NCCCC(=O)O [Compound 5] (Boc-Leu-[dW]-[GABA]-OH) | 33 | –
CC(C)C[C@H](NC(=O)OC(C)(C)C)C(=O)N[C@H](Cc1c[nH]c2ccccc12)C(=O)NCC(O)C(=O)O (some centres unmarked) [Compound 17] | 38 | –
COP(=O)(OC)n1cc(C[C@@H](NC(=O)[C@H](CC(C)C)NC(=O)N2CCCCCC2)C(=O)N[C@H](Cc2c[nH]c3ccccc23)C(=O)O)c2ccccc21 [Compound 191] | – | inhibition at 10 µM: 74%
CC(C)C[C@H](NC(=O)CC(C)(C)C)C(=O)N[C@H](Cc1c[nH]c2ccccc12)C(=O)NCCC(=O)O [Compound 68] | – | inhibition at 10 µM (10 μM test compound (marked *)): 58%
CC(C)C[C@H](NC(=O)OC(C)(C)C)C(=O)N[C@H](Cc1c[nH]c2ccccc12)C(=O)N[C@H](Cc1c[nH]c2ccccc12)C(=O)O [Compound 2] (Boc-Leu-[dW]-[dW]-OH) | 83 | –
CC(C)C[C@H](NC(=O)OC(C)(C)C)C(=O)N[C@H](Cc1c[nH]c2ccccc12)C(=O)N[C@H](C)CC(=O)O [Compound 1] (Boc-Leu-[dW]-[d(β3hA)]-OH) | 74 | –
CC(C)C[C@H](NC(=O)OC(C)(C)C)C(=O)N[C@H](Cc1c[nH]c2ccccc12)C(=O)N[C@@H](C(=O)O)C(C)C [Compound 43] (Boc-Leu-[dW]-[dV]-OH) | – | inhibition at 10 µM (10 μM test compound (marked *)): 36%
